Species on record: Rattus norvegicus
Assay: Open TG-GATES - Regimen: Daily Repeat
Format: toxicity, organism-based, Sprague-Dawley
Parameters: regimen Daily Repeat, gender Male, age 6 weeks
Conditions: in vivo, po, route gavage; for TG / TP / gamma-GTP / ALP / ALT / CRE / DBIL / GLC / IP / K / LDH / Na / PL / RALB / TBIL / TC / BUN: tissue Plasma
[1] = 60 mg/kg, […], dose level Low, time 28 day
[2] = 200 mg/kg, 72 h, dose level Middle, time 3 day
[3] = 200 mg/kg, 72 h, tissue Blood, dose level Middle, time 3 day
[4] = 200 mg/kg, […], dose level Middle, time 7 day
[5] = 200 mg/kg, […], dose level Middle, time 14 day
[6] = 200 mg/kg, […], dose level Middle, time 28 day
[7] = 200 mg/kg, […], tissue Blood, dose level Middle, time 7 day
[8] = 200 mg/kg, […], tissue Blood, dose level Middle, time 14 day
[9] = 200 mg/kg, […], tissue Blood, dose level Middle, time 28 day

SMILES: CCN(CC)C(=S)SSC(=S)N(CC)CC
- TG [1]: 67.8 mg/dL
- TP [1]: 5.9 g/dL
- gamma-GTP [1]: 1.8 IU/L
- TERMINAL_BW [2]: 218.6 g
- APTT [3]: 22.4 s
- Bas [3]: 0%
- Eos [3]: 1%
- Fbg [3]: 344.8 mg/dL
- Hb [3]: 12.4 g/dL
- Ht [3]: 37.6%
- MCH [3]: 19.7 pg
- MCHC [3]: 32.9%
- MCV [3]: 60 fL
- Mono [3]: 2.2%
- PT [3]: 15.7 s
- Plat [3]: 109.9 x10_4/uL
- RBC [3]: 627.2 x10_4/ul
- Ret [3]: 4.6%
- WBC [3]: 80.4 x10_2/uL
- ALP [2]: 878 IU/L
- ALT [2]: 45 IU/L
- CRE [2]: 0.2 mg/dL
- DBIL [2]: 0.008 mg/dL
- GLC [2]: 170.6 mg/dL
- IP [2]: 7 mg/dL
- K [2]: 4.1 meq/L
- LDH [2]: 195.4 IU/L
- Na [2]: 144 meq/L
- PL [2]: 189.4 mg/dL
- RALB [2]: 3.1 g/dL
- TBIL [2]: 0.014 mg/dL
- TC [2]: 117.8 mg/dL
- TG [2]: 54.8 mg/dL
- TP [2]: 5.6 g/dL
- gamma-GTP [2]: 1.2 IU/L
- TERMINAL_BW [4]: 250.3 g
- TERMINAL_BW [5]: 290.7 g
- TERMINAL_BW [6]: 357.8 g
- APTT [7]: 20.7 s
- Bas [7]: 0%
- Eos [7]: 1%
- Fbg [7]: 349.8 mg/dL
- Hb [7]: 12.3 g/dL
- Ht [7]: 37.8%
- MCH [7]: 20.2 pg
- MCHC [7]: 32.7%
- MCV [7]: 61.8 fL
- Mono [7]: 2.4%
- PT [7]: 16.3 s
- Plat [7]: 130.6 x10_4/uL
- RBC [7]: 611 x10_4/ul
- Ret [7]: 7.1%
- WBC [7]: 101.3 x10_2/uL
- APTT [8]: 23.3 s
- Bas [8]: 0%
- Eos [8]: 1%
- Fbg [8]: 348.6 mg/dL
- Hb [8]: 13.6 g/dL
- Ht [8]: 39.4%
- MCH [8]: 20 pg
- MCHC [8]: 34.5%
- MCV [8]: 58 fL
- Mono [8]: 2.4%
- PT [8]: 16.1 s
- RBC [8]: 679.6 x10_4/ul
- Ret [8]: 5.2%
- WBC [8]: 99.9 x10_2/uL
- APTT [9]: 24.5 s
- Bas [9]: 0%
- Eos [9]: 1.4%
- Fbg [9]: 385.6 mg/dL
- Hb [9]: 14.2 g/dL
- Ht [9]: 40.9%
- MCH [9]: 19 pg
- MCHC [9]: 34.8%
- MCV [9]: 54.7 fL
- Mono [9]: 2%
- Neu [9]: 16%
- PT [9]: 16.3 s
- Plat [9]: 100.5 x10_4/uL
- RBC [9]: 748.8 x10_4/ul
- Ret [9]: 4%
- WBC [9]: 118.2 x10_2/uL
- ALP [4]: 989.4 IU/L
- ALT [4]: 46 IU/L
- BUN [4]: 18.2 mg/dL
- CRE [4]: 0.2 mg/dL
- DBIL [4]: 0 mg/dL
- GLC [4]: 173.2 mg/dL
- IP [4]: 6.6 mg/dL
- K [4]: 4.3 meq/L
- LDH [4]: 195 IU/L
- Na [4]: 143 meq/L
- PL [4]: 171 mg/dL
- RALB [4]: 3.1 g/dL
- TBIL [4]: 0.006 mg/dL
- TG [4]: 38.2 mg/dL
- TP [4]: 5.8 g/dL
- gamma-GTP [4]: 1.6 IU/L
- ALP [5]: 989.6 IU/L
- ALT [5]: 38.8 IU/L
- BUN [5]: 22.2 mg/dL
- CRE [5]: 0.2 mg/dL
- DBIL [5]: 0 mg/dL
- GLC [5]: 172.6 mg/dL
- IP [5]: 6.4 mg/dL
- K [5]: 4.2 meq/L
- LDH [5]: 126.6 IU/L
- Na [5]: 142 meq/L
- PL [5]: 181 mg/dL
- RALB [5]: 3.2 g/dL
- TBIL [5]: 0.014 mg/dL
- TC [5]: 104 mg/dL
- TG [5]: 41.2 mg/dL
- TP [5]: 6 g/dL
- gamma-GTP [5]: 3 IU/L
- ALP [6]: 809.6 IU/L
- ALT [6]: 37.2 IU/L
- BUN [6]: 21.2 mg/dL
- CRE [6]: 0.2 mg/dL
- DBIL [6]: 0 mg/dL
- GLC [6]: 165.8 mg/dL
- IP [6]: 6 mg/dL
- K [6]: 4 meq/L
- LDH [6]: 132 IU/L
- Na [6]: 142 meq/L
- PL [6]: 188 mg/dL
- RALB [6]: 3.3 g/dL
- TBIL [6]: 0.026 mg/dL
- TC [6]: 118 mg/dL
- TG [6]: 38 mg/dL
- TP [6]: 6.4 g/dL
- gamma-GTP [6]: 2.4 IU/L

— ChEMBL document CHEMBL3885861, “Open TG-GATES”
